biological target: human APJ receptor (Homo sapiens (Human), UniProt P35414); test: [35S]GTPγS binding assay on membranes from CHO cells stably expressing human APJ receptor; type: biochemical; conditions: read-out: Activity hAPJ SPA EC50 IP
Protocol: [^35S]GTPγS Binding The human APJ receptor was cloned by polymerase chain reaction and the gene encoding the receptor was subcloned in pFLAG-CMV™-3 expression vector (Sigma, Saint Louis, Mo. USA) in-house at Amgen. A GTPγS binding assay was performed on membranes prepared from CHO cells stably expressing human APJ receptor. The optimum experimental conditions for the concentrations of GDP, MgCl2, and NaCl in the assay buffer were initially determined. […] Incubation was at RT for 90 min and the microplate was read using a ViewLux™ ultra HTS Microplate Imager (PerkinElmer, Inc.). All the results presented are means of several independent experiments and analyzed by non-linear regression methods using the commercially available program Prism (GraphPad, San Diego, Calif.) providing the EC50 values detailed in Table 13.

Chain of human APJ receptor (P35414 whole entry): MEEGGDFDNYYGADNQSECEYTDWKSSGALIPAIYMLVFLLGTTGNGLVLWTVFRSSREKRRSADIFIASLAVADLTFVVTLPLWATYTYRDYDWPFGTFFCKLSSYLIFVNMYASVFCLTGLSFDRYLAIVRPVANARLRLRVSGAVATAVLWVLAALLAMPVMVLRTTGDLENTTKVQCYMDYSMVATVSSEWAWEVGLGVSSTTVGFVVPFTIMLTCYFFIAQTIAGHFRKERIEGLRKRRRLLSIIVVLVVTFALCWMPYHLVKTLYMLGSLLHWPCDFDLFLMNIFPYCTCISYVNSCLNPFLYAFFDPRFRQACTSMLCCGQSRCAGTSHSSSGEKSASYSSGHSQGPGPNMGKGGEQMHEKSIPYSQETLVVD

Row | SMILES | EC50
1 | COC[C@@H]1COc2ncccc2-c2nnc(NS(=O)(=O)[C@@H](C)[C@H](OC(C)C)c3ncc(C)cn3)n21 (mixture of isomers) [Example 59.0, (1R,2S)-N-((5R)-5-(methoxymethyl)-5,6-dihydropyrido[3,2-f][1,2,4]triazolo[4,3-d][1,4]oxazepin-3-yl)-1-(5-methyl-2-pyrimidinyl)-1-(2-propanyloxy)-2-propanesulfonamide and (1R,2S)-N-((5S)-5-(methoxymethyl)-5,6-dihydropyrido[3,2-f][1,2,4]triazolo[4,3-d][1,4]oxazepin-3-yl)-1-(5-methyl-2-pyrimidinyl)-1-(2-propanyloxy)-2-propanesulfonamide] | 1.2 µM
2 | COC[C@@H]1COc2cccnc2-c2nnc(NS(=O)(=O)[C@@H](C)[C@@H](OC(C)C)c3ncc(C)cn3)n21 (mixture of isomers) [Example 61.0, (1S,2S)-N-((5R)-5-(methoxymethyl)-5,6-dihydropyrido[2,3-f][1,2,4]triazolo[4,3-d][1,4]oxazepin-3-yl)-1-(5-methyl-2-pyrimidinyl)-1-(2-propanyloxy)-2-propanesulfonamide and (1S,2S)-N-((5S)-5-(methoxymethyl)-5,6-dihydropyrido[2,3-f][1,2,4]triazolo[4,3-d][1,4]oxazepin-3-yl)-1-(5-methyl-2-pyrimidinyl)-1-(2-propanyloxy)-2-propanesulfonamide] | 0.44 µM
3 | Cc1cnc([C@H](OC(C)C)[C@H](C)S(=O)(=O)Nc2nnc3n2[C@H](COC(C)C)COc2ccc(F)cc2-3)nc1 (mixture of isomers) [Example 62.0, (1S,2S)-N-((R)-10-fluoro-5-(isopropoxymethyl)-5,6-dihydrobenzo[f][1,2,4]triazolo[4,3-d][1,4]oxazepin-3-yl)-1-isopropoxy-1-(5-methylpyrimidin-2-yl)propane-2-sulfonamide and (1S,2S)-N-((S)-10-fluoro-5-(isopropoxymethyl)-5,6-dihydrobenzo[f][1,2,4]triazolo[4,3-d][1,4]oxazepin-3-yl)-1-isopropoxy-1-(5-methylpyrimidin-2-yl)propane-2-sulfonamide] | 0.021 µM
4 | COC[C@@H]1COc2cnccc2-c2nnc(NS(=O)(=O)[C@@H](C)[C@@H](OC(C)C)c3ncc(C)cn3)n21 (mixture of isomers) [Example 65.0, (1S,2S)-N-((5R)-5-(methoxymethyl)-5,6-dihydropyrido[4,3-f][1,2,4]triazolo[4,3-d][1,4]oxazepin-3-yl)-1-(5-methyl-2-pyrimidinyl)-1-(2-propanyloxy)-2-propanesulfonamide and (1S,2S)-N-((5S)-5-(methoxymethyl)-5,6-dihydropyrido[4,3-f][1,2,4]triazolo[4,3-d][1,4]oxazepin-3-yl)-1-(5-methyl-2-pyrimidinyl)-1-(2-propanyloxy)-2-propanesulfonamide] | 1.2 µM
5 | COC[C@@H]1COc2ccccc2-c2nnc(NS(=O)(=O)[C@@H](C)[C@H](C)c3ncc(OC)cn3)n21 (single isomer, unassigned) [Example 1.0, (2S,3R)-N-((5R)-5-(methoxymethyl)-5,6-dihydro[1,2,4]triazolo[4,3-d][1,4]benzoxazepin-3-yl)-3-(5-methoxy-2-pyrimidinyl)-2-butanesulfonamide or (2S,3R)-N-((5S)-5-(methoxymethyl)-5,6-dihydro[1,2,4]triazolo[4,3-d][1,4]benzoxazepin-3-yl)-3-(5-methoxy-2-pyrimidinyl)-2-butanesulfonamide] | 0.12 µM
6 | COC[C@@H]1COc2ccccc2-c2nnc(NS(=O)(=O)[C@@H](C)[C@H](C)c3ncc(OC)cn3)n21 (single isomer, unassigned) [Example 2.0, (2S,3R)-N-((5R)-5-(methoxymethyl)-5,6-dihydro[1,2,4]triazolo[4,3-d][1,4]benzoxazepin-3-yl)-3-(5-methoxy-2-pyrimidinyl)-2-butanesulfonamide or (2S,3R)-N-((5S)-5-(methoxymethyl)-5,6-dihydro[1,2,4]triazolo[4,3-d][1,4]benzoxazepin-3-yl)-3-(5-methoxy-2-pyrimidinyl)-2-butanesulfonamide] | 0.77 µM
7 | COC[C@@H]1COc2ccccc2-c2nnc(NS(=O)(=O)[C@@H](C)[C@@H](OC(C)C)c3ncc(C)cn3)n21 (single isomer, unassigned) [Example 4.0, (1S,2S)-N-((5R)-5-(methoxymethyl)-5,6-dihydro[1,2,4]triazolo[4,3-d][1,4]benzoxazepin-3-yl)-1-(5-methyl-2-pyrimidinyl)-1-(2-propanyloxy)-2-propanesulfonamide or (1S,2S)-N-((5S)-5-(methoxymethyl)-5,6-dihydro[1,2,4]triazolo[4,3-d][1,4]benzoxazepin-3-yl)-1-(5-methyl-2-pyrimidinyl)-1-(2-propanyloxy)-2-propanesulfonamide] | 0.017 µM
8 | COC[C@@H]1COc2ccccc2-c2nnc(NS(=O)(=O)[C@@H](C)[C@@H](OC(C)C)c3ncc(C)cn3)n21 (single isomer, unassigned) [Example 5.0, (1S,2S)-N-((5R)-5-(methoxymethyl)-5,6-dihydro[1,2,4]triazolo[4,3-d][1,4]benzoxazepin-3-yl)-1-(5-methyl-2-pyrimidinyl)-1-(2-propanyloxy)-2-propanesulfonamide or (1S,2S)-N-((5S)-5-(methoxymethyl)-5,6-dihydro[1,2,4]triazolo[4,3-d][1,4]benzoxazepin-3-yl)-1-(5-methyl-2-pyrimidinyl)-1-(2-propanyloxy)-2-propanesulfonamide] | 0.13 µM
9 | COC[C@@H]1COc2ccc(OC)nc2-c2nnc(NS(=O)(=O)[C@@H](C)[C@H](C)c3ncc(OC)cn3)n21 (single isomer, unassigned) [Example 6.0, (2S,3R)-N-((5R)-10-methoxy-5-(methoxymethyl)-5,6-dihydropyrido[2,3-f][1,2,4]triazolo[4,3-d][1,4]oxazepin-3-yl)-3-(5-methoxy-2-pyrimidinyl)-2-butanesulfonamide or (2S,3R)-N-((5S)-10-methoxy-5-(methoxymethyl)-5,6-dihydropyrido[2,3-f][1,2,4]triazolo[4,3-d][1,4]oxazepin-3-yl)-3-(5-methoxy-2-pyrimidinyl)-2-butanesulfonamide] | 2.3 µM
10 | COC[C@@H]1COc2ccc(OC)nc2-c2nnc(NS(=O)(=O)[C@@H](C)[C@H](C)c3ncc(OC)cn3)n21 (single isomer, unassigned) [Example 7.0, (2S,3R)-N-((5R)-10-methoxy-5-(methoxymethyl)-5,6-dihydropyrido[2,3-f][1,2,4]triazolo[4,3-d][1,4]oxazepin-3-yl)-3-(5-methoxy-2-pyrimidinyl)-2-butanesulfonamide or (2S,3R)-N-((5S)-10-methoxy-5-(methoxymethyl)-5,6-dihydropyrido[2,3-f][1,2,4]traizolo[4,3-d][1,4]oxazepin-3-yl)-3-(5-methoxy-2-pyrimidinyl)-2-butanesulfonamide] | 0.25 µM
11 | COC[C@@H]1COc2c(OC)cccc2-c2nnc(NS(=O)(=O)[C@@H](C)[C@H](C)c3ncc(OC)cn3)n21 (single isomer, unassigned) [Example 8.0, (2S,3R)-N-((5R)-8-methoxy-5-(methoxymethyl)-5,6-dihydro[1,2,4]triazolo[4,3-d][1,4]benzoxazepin-3-yl)-3-(5-methoxy-2-pyrimidinyl)-2-butanesulfonamide or (2S,3R)-N-((5S)-8-methoxy-5-(methoxymethyl)-5,6-dihydro[1,2,4]triazolo[4,3-d][1,4]benzoxazepin-3-yl)-3-(5-methoxy-2-pyrimidinyl)-2-butanesulfonamide] | 0.27 µM
12 | COC[C@@H]1COc2c(OC)cccc2-c2nnc(NS(=O)(=O)[C@@H](C)[C@H](C)c3ncc(OC)cn3)n21 (single isomer, unassigned) [Example 9.0, (2S,3R)-N-((5R)-8-methoxy-5-(methoxymethyl)-5,6-dihydro[1,2,4]triazolo[4,3-d][1,4]benzoxazepin-3-yl)-3-(5-methoxy-2-pyrimidinyl)-2-butanesulfonamide or (2S,3R)-N-((5S)-8-methoxy-5-(methoxymethyl)-5,6-dihydro[1,2,4]triazolo[4,3-d][1,4]benzoxazepin-3-yl)-3-(5-methoxy-2-pyrimidinyl)-2-butanesulfonamide] | 1.6 µM
13 | COC[C@@H]1COc2ccc(OC)nc2-c2nnc(NS(=O)(=O)[C@@H](C)[C@H](C)c3ncc(C)cn3)n21 (single isomer, unassigned) [Example 12.0, (2S,3R)-N-((5R)-10-methoxy-5-(methoxymethyl)-5,6-dihydropyrido[2,3-f][1,2,4]triazolo[4,3-d][1,4]oxazepin-3-yl)-3-(5-methyl-2-pyrimidinyl)-2-butanesulfonamide or (2S,3R)-N-((5S)-10-methoxy-5-(methoxymethyl)-5,6-dihydropyrido[2,3-f][1,2,4]triazolo[4,3-d][1,4]oxazepin-3-yl)-3-(5-methyl-2-pyrimidinyl)-2-butanesulfonamide] | 1.2 µM
14 | COC[C@@H]1COc2ccc(OC)nc2-c2nnc(NS(=O)(=O)[C@@H](C)[C@H](C)c3ncc(C)cn3)n21 (single isomer, unassigned) [Example 13.0, (2S,3R)-N-((5R)-10-methoxy-5-(methoxymethyl)-5,6-dihydropyrido[2,3-f][1,2,4]triazolo[4,3-d][1,4]oxazepin-3-yl)-3-(5-methyl-2-pyrimidinyl)-2-butanesulfonamide or (2S,3R)-N-((5S)-10-methoxy-5-(methoxymethyl)-5,6-dihydropyrido[2,3-f][1,2,4]traizolo[4,3-d][1,4]oxazepin-3-yl)-3-(5-methyl-2-pyrimidinyl)-2-butanesulfonamide] | 0.37 µM
